Laboratory results: patent US11046686B2, “Thiadiazole IRAK4 compounds” (Gilead Sciences, Inc., priority 2018, dated 2021)
Where two headings read alike, the source gives them in different places.

How the values were obtained:
IRAK4 enzyme = IRAK4 enzyme (Homo sapiens (Human), UniProt Q9NWZ3); assay: IRAK4 Biochemical Assay (TR-FRET, STK1 KinEASE)
Summary of the method: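 TR-FRET endpoint (KinEASE STK1): phosphopeptide detected with cryptate antibody and tracer after EDTA quench, ratio 665/615 nm, normalized to no-inhibitor wells as % inhibition. Reaction: 0.75 nM IRAK4, […] peptide, 500 μM ATP, pH 7.0 HEPES, 120 min room temperature, after 15 min compound preincubation with enzyme.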

TNFα = assay: IRAK4 Monocyte TNFα Cell Based Assay; design: species or system human
Summary of the method: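 TNFα release quantified by HTRF (cryptate/XL665 antibody pair, overnight at RT) after 1 h compound pre-incubation (0.1% DMSO) and 4 h LPS challenge at 50 pg/ml, 37 °C, 5,000 monocytes per well. Signal ratio normalised between unstimulated (0%) and stimulated (100%) controls.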

[1] = compounds 1-32, read-out: IC50 HTRF
[2] = Homo sapiens, Monocyte, human monocytes, LPS stimulated, compounds 1-32, read-out: EC50 TNF
[3] = Homo sapiens, Monocyte, human monocytes, second part of Table 2, compounds 33-343, unit inferred, read-out: EC50 MONO TNF HTRF
[4] = Homo sapiens, Monocyte, read-out: EC50 MONO TNF HTRF

IRAK4 enzyme, sequence (Q9NWZ3 whole entry): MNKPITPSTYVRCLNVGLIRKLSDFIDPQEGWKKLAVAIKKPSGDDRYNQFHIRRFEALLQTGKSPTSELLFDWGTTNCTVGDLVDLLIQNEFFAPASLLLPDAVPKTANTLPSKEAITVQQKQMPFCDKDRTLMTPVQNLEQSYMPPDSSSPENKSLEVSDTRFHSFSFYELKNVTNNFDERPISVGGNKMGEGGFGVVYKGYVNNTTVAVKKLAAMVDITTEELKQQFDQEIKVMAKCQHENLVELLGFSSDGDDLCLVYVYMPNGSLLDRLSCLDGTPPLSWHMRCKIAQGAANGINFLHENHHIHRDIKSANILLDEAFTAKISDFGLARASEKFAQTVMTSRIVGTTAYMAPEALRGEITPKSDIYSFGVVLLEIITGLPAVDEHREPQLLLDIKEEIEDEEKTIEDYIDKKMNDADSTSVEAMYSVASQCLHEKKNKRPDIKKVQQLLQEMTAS

SMILES | IC50 (IRAK4 enzyme) [nM] | EC50 (TNFα; [3]) [nM] | further results
CC(=O)Nc1nnc(-c2cnc(-c3ccc4cc(C#N)cnn34)cc2NC(C)C)s1 [Example 19, N-(5-(6-(3-cyanopyrrolo[1,2-b]pyridazin-7-yl)-4-(isopropylamino)pyridin-3-yl)-1,3,4-thiadiazol-2-yl)acetamide] | – | – | IC50 (IRAK4 enzyme; [1]): 1 nM; EC50 (TNFα; [2]): 5870 nM
CC(=O)NC12CCC(c3nnc(-c4cnc(-c5ccc6cc(C#N)cnn56)cc4NC4CCOCC4)s3)(CC1)CC2 [Example 71, N-(4-(5-(6-(3-cyanopyrrolo[1,2-b]pyridazin-7-yl)-4-((tetrahydro-2H-pyran-4-yl)amino)pyridin-3-yl)-1,3,4-thiadiazol-2-yl)bicyclo[2.2.2]octan-1-yl)acetamide] | 0.58 | 3.2 | –
CC(=O)N[C@@H]1CCCN(C(=O)c2nnc(-c3cnc(-c4ccc5cc(C#N)cnn45)cc3NC(C)C)s2)C1 [Example 49, (R)-N-(1-(5-(6-(3-cyanopyrrolo[1,2-b]pyridazin-7-yl)-4-(isopropylamino)pyridin-3-yl)-1,3,4-thiadiazole-2-carbonyl)piperidin-3-yl)acetamide] | 1.75 | 34.3 | –
CC(C)Nc1cc(-c2ccc3cc(C#N)cnn23)ncc1-c1nnc(N2CCC(C#N)CC2)s1 [Example 310, 7-(5-(5-(4-cyanopiperidin-1-yl)-1,3,4-thiadiazol-2-yl)-4-(isopropylamino)pyridin-2-yl)pyrrolo[1,2-b]pyridazine-3-carbonitrile] | 0.66 | 25.9 | –
CC(C)Nc1cc(-c2ccc3cc(C#N)cnn23)ncc1-c1nnc(CO)s1 [Example 5, 7-(5-(5-(hydroxymethyl)-1,3,4-thiadiazol-2-yl)-4-(isopropylamino)pyridin-2-yl)pyrrolo[1,2-b]pyridazine-3-carbonitrile] | – | – | IC50 (IRAK4 enzyme; [1]): 1 nM; EC50 (TNFα; [2]): 76 nM
CC(=O)NC12CCC(c3nnc(-c4cnc(-c5ccc6cc(C#N)cnn56)cc4NC(C)C)s3)(CC1)OC2 [Example 83, N-(1-(5-(6-(3-cyanopyrrolo[1,2-b]pyridazin-7-yl)-4-(isopropylamino)pyridin-3-yl)-1,3,4-thiadiazol-2-yl)-2-oxabicyclo[2.2.2]octan-4-yl)acetamide] | 1.37 | 52.5 | –
C[C@]1(O)CCN(c2nnc(-c3cnc(-c4ccc5cc(C#N)cnn45)cc3NC3COC3)s2)C[C@@H]1F [Example 207, 7-(5-(5-((3S,4S)-3-fluoro-4-hydroxy-4-methylpiperidin-1-yl)-1,3,4-thiadiazol-2-yl)-4-(oxetan-3-ylamino)pyridin-2-yl)pyrrolo[1,2-b]pyridazine-3-carbonitrile] | 0.69 | 7.9 | –
CC(=O)NC12CCC(c3nnc(-c4cnc(-c5ccc6cc(C#N)cnn56)cc4NC(C)C)s3)(C1)C2 [Example 288, N-(4-(5-(6-(3-cyanopyrrolo[1,2-b]pyridazin-7-yl)-4-(isopropylamino)pyridin-3-yl)-1,3,4-thiadiazol-2-yl)bicyclo[2.1.1]hexan-1-yl)acetamide] | 0.72 | 19.8 | –
CC(=O)NC12CCC(c3nnc(-c4cnc(-c5ccc6cc(C#N)cnn56)cc4NC4COC4)s3)(CC1)CC2 [Example 70, N-(4-(5-(6-(3-cyanopyrrolo[1,2-b]pyridazin-7-yl)-4-(oxetan-3-ylamino)pyridin-3-yl)-1,3,4-thiadiazol-2-yl)bicyclo[2.2.2]octan-1-yl)acetamide] | 0.58 | 8.8 | –
CC(=O)N[C@@H]1CC[C@H](c2nnc(-c3cnc(-c4ccc5cc(C#N)cnn45)cc3NC(C)C)s2)C1 [Compound 248, N-((1R,3S)-3-(5-(6-(3-cyanopyrrolo[1,2-b]pyridazin-7-yl)-4-(isopropylamino)pyridin-3-yl)-1,3,4-thiadiazol-2-yl)cyclopentyl)acetamide] | 0.93 | 16.3 | –
CC(=O)N[C@H]1CC[C@H](c2nnc(-c3cnc(-c4ccc5cc(C#N)cnn45)cc3NC(C)C)s2)C1 [Compound 247, N-((1S,3S)-3-(5-(6-(3-cyanopyrrolo[1,2-b]pyridazin-7-yl)-4-(isopropylamino)pyridin-3-yl)-1,3,4-thiadiazol-2-yl)cyclopentyl)acetamide] | 0.8 | 25.1 | –
CC1(Nc2cc(-c3ccc4cc(C#N)cnn34)ncc2-c2nnc(N3C[C@H]4CC[C@@H](C3)O4)s2)COC1 [Example 145, 7-(5-(5-((1R,5S)-8-oxa-3-azabicyclo[3.2.1]octan-3-yl)-1,3,4-thiadiazol-2-yl)-4-((3-methyloxetan-3-yl)amino)pyridin-2-yl)pyrrolo[1,2-b]pyridazine-3-carbonitrile] | 0.33 | 5.6 | –
CC(=O)NC12CC(c3nnc(-c4cnc(-c5ccc6cc(C#N)cnn56)cc4NC(C)C)s3)(C1)C2 [Compound 246, N-(3-(5-(6-(3-cyanopyrrolo[1,2-b]pyridazin-7-yl)-4-(isopropylamino)pyridin-3-yl)-1,3,4-thiadiazol-2-yl)bicyclo[1.1.1]pentan-1-yl)acetamide] | 1.37 | 43.3 | –
CC(=O)N[C@H]1CC[C@H](c2nnc(-c3cnc(-c4ccc5cc(C#N)cnn45)cc3NC3(C)COC3)s2)CC1 [Example 3, N-((1r,4r)-4-(5-(6-(3-cyanopyrrolo[1,2-b]pyridazin-7-yl)-4-((3-methyloxetan-3-yl)amino)pyridin-3-yl)-1,3,4-thiadiazol-2-yl)cyclohexyl)acetamide] | – | – | IC50 (IRAK4 enzyme; [1]): < 1 nM; EC50 (TNFα; [2]): 15 nM
CC(=O)NC1CCC(F)(c2nnc(-c3cnc(-c4ccc5cc(C#N)cnn45)cc3NC(C)C)s2)CC1 (centres unmarked) [Example 194, N-(4-(5-(6-(3-cyanopyrrolo[1,2-b]pyridazin-7-yl)-4-(isopropylamino)pyridin-3-yl)-1,3,4-thiadiazol-2-yl)-4-fluorocyclohexyl)acetamide] | 0.75 | 64 | –
CC(=O)NC12CCC(c3nnc(-c4cnc(-c5ccc6cc(C#N)cnn56)cc4NC(C)C)s3)(CC1)CC2 [Compound 280, N-(4-(5-(6-(3-cyanopyrrolo[1,2-b]pyridazin-7-yl)-4-(isopropylamino)pyridin-3-yl)-1,3,4-thiadiazol-2-yl)bicyclo[2.2.2]octan-1-yl)acetamide] | 1.03 | 7.4 | –
CC(C)Nc1cc(-c2ccc3cc(C#N)cnn23)ncc1-c1nnc(N2C3CNCC2C3)s1 [Compound 274, 7-(5-(5-(3,6-diazabicyclo[3.1.1]heptan-6-yl)-1,3,4-thiadiazol-2-yl)-4-(isopropylamino)pyridin-2-yl)pyrrolo[1,2-b]pyridazine-3-carbonitrile] | 1.59 | – | EC50 (TNFα; [4]): 41 nM
CC(C)Nc1cc(-c2ccc3cc(C#N)cnn23)ncc1-c1nnc(N2CC(C)(O)C2)s1 [Example 286, 7-(5-(5-(3-hydroxy-3-methylazetidin-1-yl)-1,3,4-thiadiazol-2-yl)-4-(isopropylamino)pyridin-2-yl)pyrrolo[1,2-b]pyridazine-3-carbonitrile] | 0.63 | 21.4 | –
CNc1cc(-c2ccc3cc(C#N)cnn23)ncc1-c1nnc(N2CC[C@H](NC(C)=O)C(F)(F)C2)s1 [Example 307, (S)-N-(1-(5-(6-(3-cyanopyrrolo[1,2-b]pyridazin-7-yl)-4-(methylamino)pyridin-3-yl)-1,3,4-thiadiazol-2-yl)-3,3-difluoropiperidin-4-yl)acetamide] | 0.83 | 53.7 | –
CC(C)Nc1cc(-c2ccc3cc(C#N)cnn23)ncc1-c1nnc(CCC(C)(C)O)s1 [Example 31, 7-(5-(5-(3-hydroxy-3-methylbutyl)-1,3,4-thiadiazol-2-yl)-4-(isopropylamino)pyridin-2-yl)pyrrolo[1,2-b]pyridazine-3-carbonitrile] | – | – | IC50 (IRAK4 enzyme; [1]): < 1 nM; EC50 (TNFα; [2]): 5 nM
CC(=O)N1[C@@H]2COC[C@H]1CN(c1nnc(-c3cnc(-c4ccc5cc(C#N)cnn45)cc3NC(C)C)s1)C2 [Compound 265, 7-(5-(5-((1R,5S)-9-acetyl-3-oxa-7,9-diazabicyclo[3.3.1]nonan-7-yl)-1,3,4-thiadiazol-2-yl)-4-(isopropylamino)pyridin-2-yl)pyrrolo[1,2-b]pyridazine-3-carbonitrile] | 2.43 | – | EC50 (TNFα; [4]): 11.3 nM
CC(=O)NC1CCC2(CC1)CN(c1nnc(-c3cnc(-c4ccc5cc(C#N)cnn45)cc3NC(C)C)s1)C2 [Example 69, N-(2-(5-(6-(3-cyanopyrrolo[1,2-b]pyridazin-7-yl)-4-(isopropylamino)pyridin-3-yl)-1,3,4-thiadiazol-2-yl)-2-azaspiro[3.5]nonan-7-yl)acetamide] | 1.16 | 11.8 | –
CC(C)Nc1cc(-c2ccc3cc(C#N)cnn23)ncc1-c1nnc(N2C3CC2CN(C(=O)C(C)(C)O)C3)s1 [Compound 275, 7-(5-(5-(3-(2-hydroxy-2-methylpropanoyl)-3,6-diazabicyclo[3.1.1]heptan-6-yl)-1,3,4-thiadiazol-2-yl)-4-(isopropylamino)pyridin-2-yl)pyrrolo[1,2-b]pyridazine-3-carbonitrile] | 0.78 | 6.4 | –
CC(=O)N1CCN(C(=O)c2nnc(-c3cnc(-c4ccc5cc(C#N)cnn45)cc3NC(C)C)s2)CC1 [Example 10, 7-(5-(5-(4-acetylpiperazine-1-carbonyl)-1,3,4-thiadiazol-2-yl)-4-(isopropylamino)pyridin-2-yl)pyrrolo[1,2-b]pyridazine-3-carbonitrile] | – | – | IC50 (IRAK4 enzyme; [1]): < 1 nM; EC50 (TNFα; [2]): 157 nM
CC(C)(O)[C@H]1C[C@H]1c1nnc(-c2cnc(-c3ccc4cc(C#N)cnn34)cc2NC2COC2)s1 (single isomer, unassigned; isomer 4) [136 Isomer 4] | – | – | IC50 (IRAK4 enzyme; second part of Table 2, compounds 33-343, unit inferred, read-out: IC50 IRAK4-HTBS): 0.74 nM; EC50 (TNFα; human monocytes, second part of Table 2, compounds 33-343, unit inferred, read-out: EC50 MONO TNF HTRF): 30.5 nM
